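Interpolation was linear, between the two tested concentrations surrounding the appropriate level; five concentrations were tested over 48 hours in 96-well plates. The concentration for full growth arrest is given as TGI.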 Where a SMILES comes first, the peptide text is derived from it. The star is where a group is joined. Bn = c1ccc(C*)cc1
What was measured:
Assay in all cases: NCI anticancer screen, dose series, 48 h
CAKI-1 renal = test system: CAKI-1 renal
CCRF-CEM leukemia = test system: CCRF-CEM leukemia
HCC-2998 colon = test system: HCC-2998 colon
HL-60(TB) leukemia = test system: HL-60(TB) leukemia
HOP-62 NSCLC = test system: HOP-62 NSCLC
HS 578T breast = test system: HS 578T breast
HT29 colon = test system: HT29 colon
KM12 colon = test system: KM12 colon
NCI-H23 lung = test system: NCI-H23 lung
NCI-H522 lung = test system: NCI-H522 lung

| SMILES | TGI (CAKI-1 renal) | TGI (CCRF-CEM leukemia) | TGI (HCC-2998 colon) | TGI (HL-60(TB) leukemia) | TGI (HOP-62 NSCLC) | TGI (HS 578T breast) | TGI (HT29 colon) | TGI (KM12 colon) | TGI (NCI-H23 lung) | TGI (NCI-H522 lung) |
| --- | --- | --- | --- | --- | --- | --- | --- | --- | --- | --- |
| COC(=O)C(CC(C)C)NC(=O)C(N)Cc1ccc(OCc2ccccc2)cc1 (stereo not given) (H-Tyr(Bn)-Leu-OMe; configuration not given here) | > 10 µM | > 10 µM | > 10 µM | 5.61 µM | > 10 µM | > 10 µM | > 10 µM | > 10 µM | > 10 µM | > 10 µM |
| CC(C)(C)OC(=O)C1C(=O)NC(=O)CC1C(COCc1ccccc1)OCc1ccccc1 (stereo not given) | > 100 µM | 77.3 µM | 47.7 µM | 60.6 µM | 26.6 µM | 49.5 µM | 37.1 µM | 36.7 µM | 92.6 µM | 35.8 µM |
| O=C1CC(Sc2nc3ccc(I)cc3c(=O)n2Cc2ccccc2)C(=O)NN1 (stereo not given) | 11.2 µM | 24.1 µM | 31.8 µM | 38.4 µM | 35.1 µM | 42.4 µM | 38.6 µM | 38.8 µM | 30.1 µM | 4.26 µM |
| Cc1c(C#N)c(N)n(C2OCC(O)C(O)C2O)c(=S)c1C#N (stereo not given) | > 100 µM | > 100 µM | > 100 µM | > 100 µM | > 100 µM | > 100 µM | > 100 µM | > 100 µM | > 100 µM | > 100 µM |
| COc1c(O)c(O)cc2c1-c1ccc(OC)c(=O)cc1C(NC(C)=O)CC2 (stereo not given) | 95.6 µM | 40.2 µM | 74.8 µM | 18 µM | 87.1 µM | > 24.9 µM | 16 µM | 33 µM | 34.2 µM | 3.5 µM |
| O=C(CCCN1CCC2(CC1)C(=NC1CCCCC1)NC(=O)N2c1ccccc1)c1ccc(F)cc1 | > 100 µM | 64.4 µM | 37.7 µM | 57.4 µM | 37.5 µM | 88.4 µM | 37 µM | 42.5 µM | 48.1 µM | 51.3 µM |
| Cn1ccnc1Sc1ccc(C=Nc2ccc3nc(SCC(=O)NC4CCCCC4)sc3c2)cc1[N+](=O)[O-] | > 100 µM | > 100 µM | > 100 µM | > 100 µM | > 100 µM | 96.3 µM | > 100 µM | > 100 µM | > 100 µM | > 100 µM |
| CCOC(=O)[C@@H]1ON2O[C@@H](OC3CCCC3(c3ccccc3)c3ccccc3)C[C@H]3OC(=O)[C@@H]1C32 (stereo not given in full) | 31.6 µM | 64.8 µM | > 100 µM | 60.9 µM | > 100 µM | > 100 µM | 43.1 µM | 29 µM | 37.2 µM | 91.9 µM |
| N#CCCN(CCC#N)c1ccc(/C=C2\SC(=S)NC2=O)cc1Br | > 100 µM | > 100 µM | > 100 µM | > 100 µM | 40.4 µM | 27.1 µM | > 100 µM | > 100 µM | > 100 µM | > 100 µM |
